Laboratory results as given in patent USRE43280E1, “Hyperforin derivatives, the use thereof and formulations containing them” (Indena S.p.A., priority 2002, dated 2012).
Where two headings read alike, the source gives them in different places.

Assays:
[1] = test system: rat; assay: forced swimming test (struggling, floating, swimming); type: in vivo; settings: 3 doses: 30 minutes after the pre-test, 5 hours and 30 minutes before the test
Experimental: The compounds were administered in 3 doses: 30 minutes after the pre-test, 5 hours and 30 minutes before the test.

[2] = test system: APPs produced by α-secretase in neuroblastoma cell line (SH-SY5Y); assay: release of APPs produced by α-secretase into the culture medium of SH-SY5Y cells; type: cell-based
[3] = 10 μM, SH-SY5Y culture medium, controls = 100

| Compound | Floating ([1]; 6.25 mg/Kg) [s] | Struggling ([1]; 6.25 mg/Kg) [s] | Swimming ([1]; 6.25 mg/Kg) [s] | APPs % [2] [%] | APPs % [2, 3] [%] | Floating ([1]; 10 mg/Kg) [s] | Struggling ([1]; 10 mg/Kg) [s] | Swimming ([1]; 10 mg/Kg) [s] |
| --- | --- | --- | --- | --- | --- | --- | --- | --- |
| CC(C)=CCC[C@]1(C)[C@@H](CC=C(C)C)C[C@@]2(CC=C(C)C)C(=O)[C@]1(C(=O)C(C)C)C(=O)C(CC=C(C)C)=C2O [Hyperforin] | 60.4 ± 7.3 | 30.4 ± 4.6 | 99.3 ± 10.6 | 296 |  |  |  |  |
| CC(=O)OC1=C(CCC(C)C)C(=O)[C@@]2(CCC(C)C)C[C@H](CCC(C)C)[C@@](C)(CCCC(C)C)[C@]1(C(=O)C(C)C)C2=O [Acetyloctahydrohyperforin, acetyloctahydrohyperforin] | 68.4 ± 5.7 | 73.9 ± 5.9 | 171.9 ± 11.4 |  | 954 |  |  |  |
| CNCCCN1c2ccccc2CCc2ccccc21 [Desipramin, reference compound] |  |  |  |  |  | 53.0 ± 9.2 | 148.3 ± 12.6 | 98.8 ± 7.9 |
| tetrahydrohyperforin | 68.4 ± 7.6 | 51.4 ± 4.1 | 193.4 ± 13.2 |  | 926 |  |  |  |
| dodecahydrohyperforin | 55.1 ± 6.2 | 62.13 ± 5.1 | 169.5 ± 10.1 |  | 879 |  |  |  |
| octahydrohyperforin lithium salt | 59.5 ± 11.3 | 63.1 ± 5.8 | 177.4 ± 14.9 |  | 1383 |  |  |  |
